Results on 23 molecules are retold here after PubChem BioAssay AID330 (DTP/NCI, 2004).

Structures are written as SMILES. Where “and” joins values, the source holds several entries; their conditions need not be identical. Equal entries are not always repeated. Inconclusive results and toxic doses are left out.

In the assay the test system is P388 leukemia ip, CD2F1 mice, survival T/C. As to the kind of experiment: NCI In Vivo Anticancer Drug Screen. Data for tumor model P388 Leukemia (intraperitoneal) in CD2F1 (CDF1) mice. As to conditions: endpoint: median survival time, higher = longer survival. The procedure, abridged:
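Mice carrying the transplanted tumor received test compound or vehicle. Survival was recorded in each group, and the value is the treated-group measurement divided by that of the vehicle-treated control group.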

The mark [1] stands for this setting: dose: 6.25 mg/kg/injection, schedule: Q01DX005 (ip), vehicle: saline with Tween-80.
[2] abbreviates: dose: 12.5 mg/kg/injection, schedule: Q01DX005 (ip), vehicle: saline with Tween-80.
Setting [3] is: dose: 25.0 mg/kg/injection, schedule: Q01DX005 (ip), vehicle: saline with Tween-80.
[4] abbreviates: dose: 100.0 mg/kg/injection, schedule: Q01DX005 (ip), vehicle: saline with Tween-80.
The mark [5] stands for this setting: dose: 200.0 mg/kg/injection, schedule: Q01DX005 (ip), vehicle: saline with Tween-80.
[6] abbreviates: dose: 100.0 mg/kg/injection, schedule: Q04DX003 (ip), vehicle: saline with Tween-80.
The mark [7] stands for this setting: dose: 200.0 mg/kg/injection, schedule: Q04DX003 (ip), vehicle: saline with Tween-80.
The mark [8] stands for this setting: dose: 50.0 mg/kg/injection, schedule: Q01DX005 (ip), vehicle: saline with Tween-80.

Turning to `COc1ccc(Cc2cc3c(cc2OCC(=O)Nc2ccccn2)OCO3)cc1`, the T/C by setting is: under setting [1], 92 % of control; under setting [2], 90 % of control; under setting [3], 86 % of control; under setting [4], 90 % of control; under setting [5], 90 % of control.

Consider `CCOc1c(N=Nc2ccc(OC)cc2)c(C)nn1C(=S)SC`, for which the T/C by setting is: (dose: 60.0 mg/kg/injection, schedule: Q01DX005 (ip), vehicle: Klucel + Tween-80) 92 % of control; (dose: 120.0 mg/kg/injection, schedule: Q01DX005 (ip), vehicle: Klucel + Tween-80) 92 % of control; (dose: 240.0 mg/kg/injection, schedule: Q01DX005 (ip), vehicle: Klucel + Tween-80) 89 % of control.

Take `c1csc(-c2ccn[nH]2)c1`: the T/C (dose: 15.0 mg/kg/injection, schedule: Q01DX005 (ip), vehicle: saline with Tween-80) is 100 % of control; the T/C (dose: 30.0 mg/kg/injection, schedule: Q01DX005 (ip), vehicle: saline with Tween-80) is 100 % of control; the T/C (dose: 60.0 mg/kg/injection, schedule: Q01DX005 (ip), vehicle: saline with Tween-80) was 116 % of control and 91 % of control.

Consider `c1ccc(-c2cc3ccccc3[nH]2)cc1`, for which the T/C by setting is: (dose: 50.0 mg/kg/injection, schedule: Q01DX009 (ip), vehicle: saline with Tween-80) 90 % of control; (dose: 100.0 mg/kg/injection, schedule: Q01DX009 (ip), vehicle: saline with Tween-80) 104 % of control; (dose: 200.0 mg/kg/injection, schedule: Q01DX009 (ip), vehicle: saline with Tween-80) 102 % of control.

`CCOC(=O)CN=CC1CCC=CO1` (stereo not given): the T/C by setting is: under setting [6], 100 % of control; under setting [7], 100 % of control; (dose: 400.0 mg/kg/injection, schedule: Q04DX003 (ip), vehicle: saline with Tween-80) 100 % of control.

Regarding `S=P(N1CC1)(N1CC1)N1CC1.[Cl-].[Cl-].[NH2-].[NH2-].[Pt+4]`, the T/C was 104 % of control (dose: 0.78 mg/kg/injection, schedule: Q01DX009 (ip), vehicle: saline); 113 % of control and 101 % of control (dose: 1.56 mg/kg/injection, schedule: Q01DX009 (ip), vehicle: saline); 178 % of control and 150 % of control and 166 % of control (dose: 6.25 mg/kg/injection, schedule: Q01DX009 (ip), vehicle: saline); 88 % of control (dose: 25.0 mg/kg/injection, schedule: Q01DX009 (ip), vehicle: saline).

Consider `Cn1[nH]c2[nH]c(=S)sc(=S)c2c1=O`, for which the T/C is 109 % of control (dose: 25.0 mg/kg/injection, schedule: Q01DX005 (ip), vehicle: Klucel (hydroxypropylcellulose) (HPC)); 109 % of control (dose: 50.0 mg/kg/injection, schedule: Q01DX005 (ip), vehicle: Klucel (hydroxypropylcellulose) (HPC)); 98 % of control (dose: 100.0 mg/kg/injection, schedule: Q01DX005 (ip), vehicle: Klucel (hydroxypropylcellulose) (HPC)); 104 % of control (dose: 200.0 mg/kg/injection, schedule: Q01DX005 (ip), vehicle: Klucel (hydroxypropylcellulose) (HPC)).

For `NC(=S)N/N=C\C(CC(O)CO)=N\NC(N)=S` (stereo not given), the T/C is 101 % of control under setting [8], 101 % of control under setting [4] and 93 % of control under setting [5].

With `N=C(N)SCc1ccc2nsnc2c1`, the T/C under setting [2] was 98 % of control; the T/C under setting [3] was 100 % of control; the T/C under setting [8] was 98 % of control and 102 % of control.

On to `CCOc1ccc(N2CC(=O)N3CCCN3C(=O)C2)cc1`, for which the T/C was 96 % of control under setting [1], 102 % of control under setting [2] and 100 % of control under setting [3].

For the molecule `COc1cccc(C(=O)CC[N+](C)(C)C)c1`, the T/C reads like this: (dose: 3.13 mg/kg/injection, schedule: Q01DX009 (ip), vehicle: saline with Tween-80) 100 % of control; (dose: 6.25 mg/kg/injection, schedule: Q01DX009 (ip), vehicle: saline with Tween-80) 102 % of control; (dose: 12.5 mg/kg/injection, schedule: Q01DX009 (ip), vehicle: saline with Tween-80) 103 % of control.

Turning to `Cc1cnc(C2OCCO2)c2cccc(N)c12`, the T/C reads like this: (dose: 50.0 mg/kg/injection, schedule: Q01DX009 (ip), vehicle: Klucel (hydroxypropylcellulose) (HPC)) 104 % of control; (dose: 100.0 mg/kg/injection, schedule: Q01DX009 (ip), vehicle: Klucel (hydroxypropylcellulose) (HPC)) 105 % of control; (dose: 200.0 mg/kg/injection, schedule: Q01DX009 (ip), vehicle: Klucel (hydroxypropylcellulose) (HPC)) 112 % of control.

On to `CCCCCCCCCCCCCCCCOP(=O)(O)OCCCCCCCCCCCCCCCC`, for which the T/C by setting is: under setting [6], 88 % of control; under setting [7], 90 % of control.

Regarding `O=c1[nH]c2cc(Cl)ccc2n1C1CCN(CCCC(c2ccc(F)cc2)c2ccc(F)cc2)CC1`, the T/C under setting [1] was 106 % of control, the T/C under setting [2] was 110 % of control and the T/C under setting [3] was 110 % of control.

For the molecule `c1cc2cc(-c3ccc4cc(C5=NCCN5)[nH]c4c3)[nH]c2cc1C1=NCCN1`, the T/C was 108 % of control (dose: 25.0 mg/kg/injection, schedule: Q04DX003 (ip), vehicle: saline); 116 % of control (dose: 50.0 mg/kg/injection, schedule: Q04DX003 (ip), vehicle: saline); 184 % of control (dose: 200.0 mg/kg/injection, schedule: Q04DX003 (ip), vehicle: saline).

On to `O=C(CCCCC(=O)Nc1ccc2c(=O)c3ccccc3[nH]c2c1)Nc1ccc2c(=O)c3ccccc3[nH]c2c1`, for which the T/C is, setting by setting: under setting [8], 99 % of control; under setting [4], 104 % of control; under setting [5], 104 % of control.

In the case of `CCCCN(CCCC)CCCNc1c2c(nc3ccccc13)CCCC2`, the T/C (dose: 12.5 mg/kg/injection, schedule: Q01DX005 (ip), vehicle: saline) is 95 % of control; the T/C (dose: 25.0 mg/kg/injection, schedule: Q01DX005 (ip), vehicle: saline) was 104 % of control; the T/C (dose: 50.0 mg/kg/injection, schedule: Q01DX005 (ip), vehicle: saline) was 100 % of control.

Regarding `CC(=O)O.[Cd]`, the T/C is 95 % of control (dose: 1.25 mg/kg/injection, schedule: Q01DX009 (ip), vehicle: saline); 90 % of control (dose: 1.25 mg/kg/injection, schedule: Q04DX003 (ip), vehicle: saline); 100 % of control (dose: 2.5 mg/kg/injection, schedule: Q01DX009 (ip), vehicle: saline); 90 % of control (dose: 2.5 mg/kg/injection, schedule: Q04DX003 (ip), vehicle: saline); 100 % of control (dose: 5.0 mg/kg/injection, schedule: Q01DX009 (ip), vehicle: saline); 95 % of control (dose: 5.0 mg/kg/injection, schedule: Q04DX003 (ip), vehicle: saline).

Consider `O=c1n(-c2ccccc2)c(=O)n2n1C1C=CC2C23C=CC12CCCC3` (stereo not given), for which the T/C by setting is: (dose: 100.0 mg/kg/injection, schedule: Q04DX003 (ip), vehicle: Klucel (hydroxypropylcellulose) (HPC)) 96 % of control; (dose: 200.0 mg/kg/injection, schedule: Q04DX003 (ip), vehicle: Klucel (hydroxypropylcellulose) (HPC)) 96 % of control; (dose: 400.0 mg/kg/injection, schedule: Q04DX003 (ip), vehicle: Klucel (hydroxypropylcellulose) (HPC)) 96 % of control.

Turning to `C=C1C(=O)C23C(OC(=O)CCCCCCCCCCCCC)C1CCC2C12COC3(O)C(O)C1C(C)(C)CCC2O` (stereo not given), the T/C (dose: 3.75 mg/kg/injection, schedule: Q01DX009 (ip), vehicle: saline with Tween-80) was 104 % of control; the T/C (dose: 7.5 mg/kg/injection, schedule: Q01DX009 (ip), vehicle: saline with Tween-80) was 109 % of control; the T/C (dose: 15.0 mg/kg/injection, schedule: Q01DX009 (ip), vehicle: saline with Tween-80) was 112 % of control.

As for `NC(=S)C(F)(F)F`, the T/C (dose: 75.0 mg/kg/injection, schedule: Q01DX001 (ip), vehicle: saline with Tween-80) is 103 % of control; the T/C (dose: 150.0 mg/kg/injection, schedule: Q01DX001 (ip), vehicle: saline with Tween-80) is 113 % of control; the T/C (dose: 300.0 mg/kg/injection, schedule: Q01DX001 (ip), vehicle: saline with Tween-80) was 103 % of control.

`COc1ccc(-c2nc(C)[nH]c(=O)c2Cc2c(O)ccc3ccccc23)cc1`: the T/C was 102 % of control (dose: 50.0 mg/kg/injection, schedule: Q01DX009 (ip), vehicle: saline); 100 % of control (dose: 100.0 mg/kg/injection, schedule: Q01DX009 (ip), vehicle: saline); 99 % of control (dose: 200.0 mg/kg/injection, schedule: Q01DX009 (ip), vehicle: saline).

Turning to `CCOC(=O)C(Cc1ccc(N(CCCl)CCCl)cc1)NC(=O)C(NC(C)=O)C(C)C` (stereo not given), the T/C was 123 % of control (dose: 5.0 mg/kg/injection, schedule: Q04DX003 (ip), vehicle: water); 160 % of control (dose: 20.0 mg/kg/injection, schedule: Q04DX003 (ip), vehicle: water); 241 % of control (dose: 40.0 mg/kg/injection, schedule: Q04DX003 (ip), vehicle: water).
